In PubChem BioAssay (NCI) one finds GI50 and TGI data, which are given here for seven compounds.

What all share (assay): growth of human tumour cells (NCI), 48 h
Experiment [1] has as its system HCC-2998 colon.
The test system of experiment [2] is SK-MEL-5 melanoma.
The subject of experiment [3] is HL-60(TB) leukemia.
The test system of experiment [4] is HOP-92 NSCLC.
Experiment [5] relates to NCI-H460 lung.
Experiment [6] has as its system SR leukemia.
For experiment [7], the system named is SN12C renal.
Experiment [8] concerns MALME-3M melanoma.
The test system of experiment [9] is HCT-15 colon.
Experiment [10] concerns SF-268 CNS.

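A five-concentration, 48-hour dose response in 96-well plates underlies each endpoint, interpolated linearly between surrounding concentrations. GI50 is the concentration that inhibits growth by half. TGI: total growth inhibition.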 Some results are limits rather than exact numbers.

For `C#Cc1cccc(NC(=O)c2ccc(NC(=O)CCl)cc2)c1`, the GI50 is over 82.5 µM in [1]; 24.9 µM in [2]; 15.7 µM in [3]; 11.4 µM in [4]; 29.2 µM in experiment [5]; 7.17 µM in experiment [6]. The GI50 in experiment [7] was 18.6 µM; in experiment [8], 16.4 µM; in [9], 9.95 µM; in [10] it was 18.7 µM. Besides, the TGI in experiment [1] was over 82.5 µM; in experiment [2] it was over 82.5 µM; in experiment [3] it was 45 µM; in experiment [4] it was 26.4 µM; in experiment [5], over 82.5 µM; in [6] it was 26.6 µM. In addition, the TGI in [7] was over 82.5 µM; in experiment [8], 53.3 µM; in experiment [9] it was 25 µM; in experiment [10] it was over 82.5 µM.
As for `Cc1ccc(S(=O)(=O)N2CCc3ccc(O)c4c3C2Cc2ccc3c(c2-4)OCO3)cc1` (stereo not given), the GI50 is 1.56 µM in experiment [1]; 0.486 µM in experiment [2]; 0.398 µM in experiment [3]; 0.417 µM in [4]; 0.539 µM in experiment [5]; 0.352 µM in experiment [6]. Besides, the GI50 is 2.32 µM in [7], 0.775 µM in experiment [8], 0.583 µM in experiment [9] and 1.01 µM in experiment [10]. For the same compound, the TGI in [1] came to 5.24 µM; in experiment [2], 2.18 µM; in experiment [3] it was 5.56 µM; in experiment [4], 3.51 µM; in experiment [5], 7.53 µM; in experiment [6], 5.98 µM. Also, the TGI was over 40 µM in [7], 30.4 µM in experiment [8], over 35.1 µM in experiment [9] and 23.3 µM in experiment [10].
On to `CCOC(=O)C(=O)Nc1ccccc1C(C)C`, for which the TGI in experiment [1], in experiment [2], in [3], in experiment [4], in [5] and in experiment [6] was over 100 µM each time. Further, the TGI in experiment [7], in experiment [8], in experiment [9] and in experiment [10] was over 100 µM in each case.
As for `COc1cccc(Nc2nccc(-c3cnn4ncccc34)n2)c1`, the GI50 in [1] was 0.0671 µM; in experiment [2], 0.0588 µM; in experiment [3] it was 0.0553 µM; in [4] it was 0.0392 µM; in experiment [5], 0.0754 µM; in experiment [6], 0.0114 µM. Also, the GI50 in experiment [7] is 0.0837 µM; in experiment [8] it was 0.0739 µM; in [9], 0.0697 µM; in [10], 0.0721 µM. In addition, the TGI was 0.238 µM in [1]; 0.561 µM in experiment [2]; 0.163 µM in [3]; 0.157 µM in experiment [4]; over 25 µM in experiment [5]; 0.0946 µM in experiment [6]. The TGI in [7] was over 25 µM; in [8] it was 0.204 µM; in experiment [9] it was over 25 µM; in [10] it was 1.42 µM.
`FC(F)(F)c1cc(Nc2ccc3cc(OCCCN4CCOCC4)ccc3n2)ccc1Cl`: the GI50 is 1.74 µM in [1]; 1.64 µM in experiment [2]; 2.24 µM in [3]; 1.15 µM in experiment [4]; 1.72 µM in [5]; 1.4 µM in [6]. For the same compound, the GI50 was 2.96 µM in [7], 1.67 µM in experiment [8], 1.28 µM in experiment [9] and 1.9 µM in [10]. Besides, the TGI in [1] turned out to be 3.38 µM; in [2], 3.16 µM; in experiment [3], 6.49 µM; in experiment [4] it was 2.97 µM; in experiment [5] it was 3.42 µM; in experiment [6] it was 4.73 µM. The TGI worked out at 12.9 µM in [7], 4.34 µM in experiment [8], 3.08 µM in experiment [9] and 4.71 µM in experiment [10].
`CCN=C(C#N)NCC`: the TGI in [1], in experiment [2], in experiment [3], in experiment [4], in experiment [5] and in experiment [6] was over 100 µM in each case. For the same compound, the TGI in experiment [7], in [8], in experiment [9] and in experiment [10] was over 100 µM in each case.
As for `Cc1cc(Cl)cc(Cc2cc(Cl)cc(C)c2O)c1O`, the GI50 in experiment [1] is 2.68 µM; in experiment [2] it was 1.71 µM; in experiment [3], 2.94 µM; in [4], 0.397 µM; in experiment [5] it was 3.14 µM; in experiment [6], 2.58 µM. Besides, the GI50 was 2.27 µM in experiment [7], 2.35 µM in experiment [8], 3.06 µM in experiment [9] and 2.9 µM in experiment [10]. Also, the TGI came to 7.95 µM in experiment [1]; 3.61 µM in [2]; 8.09 µM in experiment [3]; 2.83 µM in [4]; 10.5 µM in experiment [5]; 10.8 µM in experiment [6]. The TGI in experiment [7] was found to be 9.7 µM; in experiment [8], 6.86 µM; in experiment [9], 11.3 µM; in [10], 16.8 µM.
